Several values for one entry are separate records, joined by “and”; a condition that tells them apart may be missing. Identical values can stand only once. Like-named read-outs stand apart in the source and are kept apart here.
Tests used:
[1] = tested on: phosphotyrosine-JAK2; assay: Inhibition of phosphotyrosine-JAK2 levels in tumor cell lines (Western blotting); type: cell-based, human; conditions: for levels of P-JAK2: A549 cells, 10 μM, 4 hours
Procedure: (§1) Western blotting. Treated cell samples were lysed in 30 mM HEPES, pH 7.5, 10 mM NaCl, 5 mM MgCl2, 25 mM NaF, 1 mM EGTA, 1% Triton X-100, 10% glycerol, 2 mM sodium orthovanadate, 10 μg/ml aprotinin, 10μ/ml soybean trypsin inhibitor, 25 μg/ml leupeptin, 2 mM PMSF, and 6.4 mg/ml p-nitrophenylphosphate. Phospho-STAT3, phospho-AKT, phospho-Src, and phospho-p42/p44 MAPK antibodies were obtained from Cell Signaling Technologies (Cambridge, Mass., USA). Phospho-JNK and whole STAT3 antibodies were purchased from Santa Cruz Biotechnology (Santa Cruz, Calif., USA); phospho-JAK2 antibody came from Upstate Biotechnology (Lake Placid, N.Y., USA). Membranes were blocked in either 5% milk in phosphate-buffered saline (PBS), pH 7.4, containing 0.1% Tween-20 (PBS-T) or 1% BSA in tris-buffered saline (TBS), pH 7.5, containing 0.1% Tween-20 (TBS-T). Phospho-specific antibodies (excepting P-MAPK and P-JNK) were incubated in 1% BSA in TBS-T while all other antibodies were diluted in 5% milk in PBS-T for either 2 h at room temperature or overnight at 4° C. HRP-conjugated secondary antibodies (Jackson ImmunoResearch, West Grove, Pa., USA) were diluted in 5% milk in either PBS-T or TBS-T at 1:1000 dilution for 1 h at room temperature. Western blots were visualized using enhanced chemiluminescence.
(§2) To this end, A549 cells (a human non-small-cell lung carcinoma line) were treated with either vehicle, cucurbitacin analogs A, B, E, or I, or withacnistin mixture (10 ∥M) for 4 hours and the cell lysates processed for Western blotting with antiphosphotyrosine STAT3 (Y705) antibody or antiphosphotyrosine JAK2 (Y1007, Y1008) antibody as described under Materials and Methods.
(§3) As further support of the specific antiphosphotyrosine STAT3, but not antiphosphotyrosine JAK2, activity of withacnistin, A549 cells, as well as two breast carcinoma cell lines (MDA-MB-435 and MDA-MB-468) that also express constitutively activated JAK2 and STAT3, were treated with the withacnistin mixture at various concentrations, and determined IC50 values of inhibition of STAT3 and JAK2 activation.

[2] = tested on: phosphotyrosine-STAT3; assay: Inhibition of phosphotyrosine-STAT3 levels in tumor cell lines (Western blotting); type: cell-based, human
Procedure: as §1, §2, §3

[3] = tested on: A549 tumors; assay: Antitumor activity in nude mouse xenograft model, A549; type: in vivo; conditions: nude mice
Source text: (§4) Antitumor activity in the nude mouse tumor xenograft model. Nude mice (Charles River, Wilmington, Mass., USA) were maintained in accordance with the Institutional Animal Care and Use Committee (IACUC) procedures and guidelines. A549 cells were harvested, resuspended in PBS, and injected subcutaneously (s.c.) into the right and left flank (1×10^7 cells per flank) of 8-week-old female nude mice as reported previously (Blaskovich, M. A. et al. Cancer Res., 2003, 63:1270-1279). When tumors reached about 150 mm^3, animals were randomized (four animals per group; two tumors per animal) and dosed intraperitoneally (i.p.) either with cucurbitacin analogs (0.5 or 1 mg/kg/day, i.p.) in 20% DMSO in water or with an equal volume of vehicle control. The tumor volumes were determined by measuring the length (l) and the width (w) and calculating the volume (V=lw^2/2) as described previously (Blaskovich, M. A. et al. Cancer Res., 2003, 63:1270-1279). Statistical significance between control and treated animals were evaluated by using Student's t-test.
(§5) To determine the ability of the cucurbitacin analogs and withacnistin to inhibit tumor growth in vivo, the antitumor activity of the cucurbitacin analogs and withacnistin against both A549 and v-Src/3T3 tumors in a nude mouse xenograft model was evaluated. When the tumors became palpable (at volumes of approximately 100-150 mm^3), the mice were treated either with vehicle control or 1 mg/kg/day of the cucurbitacins or the withacnistin mixture. Tumor volumes were monitored by caliper measurement as previously described (Blaskovich, M. A. et al. Cancer Res., 2003, 63:1270-1279) and under Materials and Methods.

[4] = tested on: v-Src/3T3 tumors; assay: Antitumor activity in nude mouse xenograft model, v-Src/3T3; type: in vivo; conditions: v-Src/3T3 xenograft, nude mice
Source text: as §4, §5
Withacnistin inhibited 57% of tumor growth while Cuc I, B, and E inhibited 45, 40, and 42% of tumor growth, respectively (FIG. 3 and Table 2).

[5] = 0.5 mg/kg/day i.p., 0.5 mg/kg/day
[6] = 1 mg/kg/day i.p., Wit = withacnistin mixture

Compound | P-JAK2 levels ([1]; A549 cells (FIG. 8A)) | P-STAT3 levels ([2]; A549 cells (FIG. 8A)) | % Inhibition of tumor growth [3, 5] | % Inhibition of tumor growth [4, 5] | levels of P-JAK2 [1] | levels of P-STAT3 [2] | % Inhibition of tumor growth [3, 6] [%] | % Inhibition of tumor growth [4, 6] [%] | levels of P-STAT3 ([2]; A549 cells, 10 μM, 4 hours)
3-ethoxy-2,3-dihydrowithacnistin [EDH-Wit] | suppressed neither | suppressed neither | – | – | – | – | – | – | –
CC(=O)OC(C)(C)/C=C/C(=O)[C@](C)(O)[C@H]1[C@H](O)C[C@@]2(C)[C@@H]3CC=C4[C@H](C[C@H](O)C(=O)C4(C)C)[C@]3(C)C(=O)C[C@]12C [Cuc B, cucurbitacin B] | – | – | 53.6% and 53.6^b % | 40% and 40^a % | inhibited | inhibited | – | – | –
CC(=O)OC(C)(C)/C=C/C(=O)[C@](C)(O)[C@H]1[C@H](O)C[C@@]2(C)[C@@H]3CC=C4[C@@H](C=C(O)C(=O)C4(C)C)[C@]3(C)C(=O)C[C@]12C [Cuc E, cucurbitacin E] | – | – | – | – | inhibited | – | 48.5 | 42 | inhibited

— patent US20070191490A1, “Withacnistin compounds for treatment of cancer” (priority 2006, published 2007)
